Results as given in article PMC11859928, “Design, Synthesis, and Antiproliferative Activity of Novel Indole/1,2,4-Triazole Hybrids as Tubulin Polymerization Inhibitors” (Pharmaceuticals, 2025).

Tests used:
Assay in all cases: NCI one-dose assay
Type in all cases: cell-based
[1] = system: BT-549; conditions: Homo sapiens, BT-549, Breast cancer, read-out: Cell growth inhibition %
[2] = system: CAKI-1; conditions: Homo sapiens, CAKI-1, Renal cancer, read-out: Cell growth inhibition %
[3] = system: CCRF-CEM; conditions: Homo sapiens, Leukemia, read-out: Cell growth inhibition %
[4] = system: DU-145; conditions: Homo sapiens, DU-145, Prostate cancer, read-out: Cell growth inhibition %
[5] = system: HCC-2998; conditions: Homo sapiens, HCC-2998, Colon cancer, read-out: Cell growth inhibition %
[6] = system: HCT-116; conditions: Homo sapiens, HCT-116, Colon cancer, read-out: Cell growth inhibition %
[7] = system: HCT-15; conditions: Homo sapiens, HCT-15, Colon cancer, read-out: Cell growth inhibition %
[8] = system: HOP-62; conditions: Homo sapiens, HOP-62, Non-small cell lung cancer, read-out: Cell growth inhibition %
[9] = system: HS 578 T; conditions: Homo sapiens, Breast cancer, read-out: Cell growth inhibition %
[10] = system: HT29; conditions: Homo sapiens, HT-29, HT29, Colon cancer, read-out: Cell growth inhibition %
[11] = system: IGROV1; conditions: Homo sapiens, IGROV-1, IGROV1, Ovarian cancer, read-out: Cell growth inhibition %
[12] = system: K-562; conditions: Homo sapiens, K562, K-562, Leukemia, read-out: Cell growth inhibition %
[13] = system: KM12; conditions: Homo sapiens, KM12, Colon cancer, read-out: Cell growth inhibition %
[14] = system: MALME-3M; conditions: Homo sapiens, Melanoma, read-out: Cell growth inhibition %
[15] = system: MDA-MB-231/ATCC; conditions: Homo sapiens, Breast cancer, read-out: Cell growth inhibition %
[16] = system: MDA-MB-435; conditions: Homo sapiens, MDA-MB-435, Melanoma, read-out: Cell growth inhibition %
[17] = system: MDA-MB-468; conditions: Homo sapiens, MDA-MB-468, Breast cancer, read-out: Cell growth inhibition %
[18] = system: MOLT-4; conditions: Homo sapiens, MOLT-4, Leukemia, read-out: Cell growth inhibition %
[19] = system: NCI-H23; conditions: Homo sapiens, NCI-H23, Non-small cell lung cancer, read-out: Cell growth inhibition %
[20] = system: NCI/ADR-RES; conditions: Homo sapiens, Ovarian cancer, read-out: Cell growth inhibition %
[21] = system: OVCAR-4; conditions: Homo sapiens, OVCAR-4, Ovarian cancer, read-out: Cell growth inhibition %
[22] = system: OVCAR-5; conditions: Homo sapiens, OVCAR-5, Ovarian cancer, read-out: Cell growth inhibition %
[23] = system: OVCAR-8; conditions: Homo sapiens, OVCAR-8, Ovarian cancer, read-out: Cell growth inhibition %
[24] = system: SF-539; conditions: Homo sapiens, SF-539, CNS cancer, read-out: Cell growth inhibition %
[25] = system: SK-MEL-2; conditions: Homo sapiens, SK-MEL-2, Melanoma, read-out: Cell growth inhibition %
[26] = system: SK-MEL-5; conditions: Homo sapiens, SK-MEL-5, Melanoma, read-out: Cell growth inhibition %
[27] = system: SK-OV-3; conditions: Homo sapiens, SK-OV-3, Ovarian cancer, read-out: Cell growth inhibition %
[28] = system: SN12C; conditions: Homo sapiens, Renal cancer, read-out: Cell growth inhibition %
[29] = system: SNB-19; conditions: Homo sapiens, SNB-19, CNS cancer, read-out: Cell growth inhibition %
[30] = system: SNB-75; conditions: Homo sapiens, SNB-75, CNS cancer, read-out: Cell growth inhibition %
[31] = system: SR; conditions: Homo sapiens, Leukemia, read-out: Cell growth inhibition %
[32] = system: SW-620; conditions: Homo sapiens, SW-620, Colon cancer, read-out: Cell growth inhibition %
[33] = system: T-47D; conditions: Homo sapiens, T47D, Breast cancer, read-out: Cell growth inhibition %
[34] = system: TK-10; conditions: Homo sapiens, TK-10, Renal cancer, read-out: Cell growth inhibition %
[35] = system: UACC-257; conditions: Homo sapiens, UACC-257, Melanoma, read-out: Cell growth inhibition %
[36] = system: UACC-62; conditions: Homo sapiens, UACC-62, Melanoma, read-out: Cell growth inhibition %

SMILES | inhibition at 10 µM [1] [%] | inhibition at 10 µM [2] [%] | inhibition at 10 µM [3] [%] | inhibition at 10 µM [4] [%] | inhibition at 10 µM [5] [%] | inhibition at 10 µM [6] [%] | inhibition at 10 µM [7] [%] | inhibition at 10 µM [8] [%] | inhibition at 10 µM [9] [%] | inhibition at 10 µM [10] [%] | inhibition at 10 µM [11] [%] | inhibition at 10 µM [12] [%] | inhibition at 10 µM [13] [%] | inhibition at 10 µM [14] [%] | inhibition at 10 µM [15] [%] | inhibition at 10 µM [16] [%] | inhibition at 10 µM [17] [%] | inhibition at 10 µM [18] [%] | inhibition at 10 µM [19] [%] | inhibition at 10 µM [20] [%] | other results
O/N=C(\CSc1nnc(-c2c[nH]c3ccccc23)n1-c1ccccc1)c1ccccc1 [Compound 7f, (Z)-2-((5-(1H-Indol-3-yl)-4-phenyl-4H-1,2,4-triazol-3-yl)thio)-1-phenylethanone Oxime] | 42.5 | 48.9 | 59 | 40.2 | 43.3 | 60 | 74.8 | 15.4 | 33.3 | 50.7 | 41.8 | 67.6 | 59.9 | 23.9 | 31.3 | 54.9 | 64.6 | 76.1 | 45.8 | 44.7 | inhibition at 10 µM [21]: 62.2%; inhibition at 10 µM [22]: 14.3%; inhibition at 10 µM [23]: 43.2%; inhibition at 10 µM [24]: 22.9%; inhibition at 10 µM [25]: 50.8%; inhibition at 10 µM [26]: 84.1%; inhibition at 10 µM [27]: 30.6%; inhibition at 10 µM [28]: 42.6%; inhibition at 10 µM [29]: 48.5%; inhibition at 10 µM [30]: 23.8%; inhibition at 10 µM [31]: 43.8%; inhibition at 10 µM [32]: 47.2%; inhibition at 10 µM [33]: 80.2%; inhibition at 10 µM [34]: 34%; inhibition at 10 µM [35]: 20.1%; inhibition at 10 µM [36]: 59.2%
COc1ccc(/C(CSc2nnc(-c3c[nH]c4ccccc34)n2-c2ccccc2)=N/O)cc1 [Compound 7g, (Z)-2-((5-(1H-Indol-3-yl)-4-phenyl-4H-1,2,4-triazol-3-yl)thio)-1-(4-methoxyphenyl) Ethanone Oxime] | 83.5 | 79.9 | 83.5 | 57 | 57.6 | 71.9 | 84.7 | 55 | 61.2 | 68 | 56.9 | 81.2 | 78.8 | 26.9 | 39.3 | 105 | 99.4 | 83.3 | 58.4 | 61.8 | inhibition at 10 µM [21]: 83.2%; inhibition at 10 µM [22]: 45%; inhibition at 10 µM [23]: 70.3%; inhibition at 10 µM [24]: 42.7%; inhibition at 10 µM [25]: 94.1%; inhibition at 10 µM [26]: 110%; inhibition at 10 µM [27]: 47.9%; inhibition at 10 µM [28]: 54.2%; inhibition at 10 µM [29]: 59.7%; inhibition at 10 µM [30]: 36.7%; inhibition at 10 µM [31]: 89.1%; inhibition at 10 µM [32]: 60.6%; inhibition at 10 µM [33]: 89.7%; inhibition at 10 µM [34]: 57.4%; inhibition at 10 µM [35]: 49.9%; inhibition at 10 µM [36]: 68.6%
Cc1ccc(/C(CSc2nnc(-c3c[nH]c4ccccc34)n2-c2ccccc2)=N/O)cc1 [Compound 7h, (Z)-2-((5-(1H-Indol-3-yl)-4-phenyl-4H-1,2,4-triazol-3-yl)thio)-1-(p-tolyl)ethanone Oxime] | 176 | 127 | 135 | 160 | 142 | 97.4 | 162 | 157 | 154 | 93.7 | 162 | 98.4 | 49.8 | 83.3 | 182 | 200 | 189 | 128 | 46.7 | 168 | inhibition at 10 µM [21]: 187%; inhibition at 10 µM [22]: 149%; inhibition at 10 µM [23]: 128%; inhibition at 10 µM [24]: 89.9%; inhibition at 10 µM [25]: 37.3%; inhibition at 10 µM [26]: 65.9%; inhibition at 10 µM [27]: 88.5%; inhibition at 10 µM [28]: 137%; inhibition at 10 µM [29]: 119%; inhibition at 10 µM [30]: 144%; inhibition at 10 µM [31]: 90.2%; inhibition at 10 µM [32]: 180%; inhibition at 10 µM [33]: 147%; inhibition at 10 µM [34]: 165%; inhibition at 10 µM [35]: 64.3%; inhibition at 10 µM [36]: 153%
O/N=C(\CSc1nnc(-c2c[nH]c3ccccc23)n1-c1ccccc1)c1ccc(Br)cc1 [Compound 7i, (Z)-2-((5-(1H-Indol-3-yl)-4-phenyl-4H-1,2,4-triazol-3-yl)thio)-1-(4-bromophenyl) Ethanone Oxime] | 173 | 194 | 106 | 188 | 166 | 136 | 193 | 155 | 139 | 177 | 165 | 111 | 97.9 | 110 | 184 | 200 | 195 | 119 | 85.9 | 174 | inhibition at 10 µM [21]: 183%; inhibition at 10 µM [22]: 183%; inhibition at 10 µM [23]: 142%; inhibition at 10 µM [24]: 165%; inhibition at 10 µM [25]: 166%; inhibition at 10 µM [26]: 124%; inhibition at 10 µM [27]: 150%; inhibition at 10 µM [28]: 177%; inhibition at 10 µM [29]: 109%; inhibition at 10 µM [30]: 120%; inhibition at 10 µM [31]: 98.7%; inhibition at 10 µM [32]: 186%; inhibition at 10 µM [33]: 94%; inhibition at 10 µM [34]: 183%; inhibition at 10 µM [35]: 109%; inhibition at 10 µM [36]: 190%
